Measurements as given in patent US20040235752A1, “3-fluoro-pyrrolidines as antidiabetic agents” (priority 2001, published 2004).

Molecular target: DP-IV (Homo sapiens, UniProt P27487)
Test: DP-IV inhibition assay according to WO95/15309
Format: biochemical
Details: at concentrations up to 5 μM
Protocol: Compounds were assayed as inhibitors of DP-IV according to the methods described in WO95/15309.

DP-IV, sequence (P27487 whole entry): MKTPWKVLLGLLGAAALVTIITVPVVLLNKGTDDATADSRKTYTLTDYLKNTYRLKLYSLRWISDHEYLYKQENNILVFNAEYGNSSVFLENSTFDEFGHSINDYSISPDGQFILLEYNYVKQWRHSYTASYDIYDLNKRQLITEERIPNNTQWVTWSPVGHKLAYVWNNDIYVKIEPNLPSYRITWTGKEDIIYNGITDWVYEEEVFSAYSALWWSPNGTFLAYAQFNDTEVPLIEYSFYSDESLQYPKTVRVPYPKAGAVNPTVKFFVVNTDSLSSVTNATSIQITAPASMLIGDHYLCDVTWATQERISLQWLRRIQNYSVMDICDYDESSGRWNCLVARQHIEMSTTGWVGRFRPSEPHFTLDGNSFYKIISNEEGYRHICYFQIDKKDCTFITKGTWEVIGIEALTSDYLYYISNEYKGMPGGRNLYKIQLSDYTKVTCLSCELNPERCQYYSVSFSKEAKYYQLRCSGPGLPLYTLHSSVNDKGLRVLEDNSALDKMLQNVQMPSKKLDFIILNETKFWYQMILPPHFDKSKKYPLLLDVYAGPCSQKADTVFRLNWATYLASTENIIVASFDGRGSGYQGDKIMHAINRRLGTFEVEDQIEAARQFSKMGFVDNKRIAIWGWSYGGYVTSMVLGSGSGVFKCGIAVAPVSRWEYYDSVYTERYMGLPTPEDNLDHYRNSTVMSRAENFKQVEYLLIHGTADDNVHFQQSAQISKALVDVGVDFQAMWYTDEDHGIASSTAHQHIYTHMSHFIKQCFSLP

| SMILES | inhibition of DP-IV |
| --- | --- |
| CC(=O)OC(C)OC(=O)N[C@@H](CCCNC(=O)c1cnccn1)C(=O)N1CC(F)(F)C[C@H]1C#N (stereo partly drawn) [Example 7, (2S)-1-[N^α-(1′-Acetoxyethoxycarbonyl)-N^ω-(pyrazinyl-2-carbonyl)-L-ornithinyl]-4,4-difluoropyrrolidine-2-carbonitrile] | do not show significant inhibition |
| CC(=O)OCOC(=O)N[C@@H](CCCNC(=O)c1cnc(Cl)c(Cl)c1)C(=O)N1CCC(F)(F)C1 [Example 8, 1-[N^α-(Acetoxymethoxycarbonyl)-N^ω-(5,6-dichloronicotinoyl)-L-ornithinyl]-3,3-difluoropyrrolidine] | do not show significant inhibition |
